The source of these data is ChEMBL document CHEMBL1201862, “PubChem BioAssay data set” (2004).

Among the test systems are SK-MEL-2; BT-549; HCT-116; SK-OV-3; NCI-H460; A549; MOLT-4; SF-268; MDA-MB-231; MDA-MB-435; HCT-15; SK-MEL-28; K562; NCI-H23; SF-539; OVCAR-5; EKVX.
What all share (assay): growth of human tumour cells (NCI), 48 h

Each structure is given as a SMILES string.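 Grown in 96-well plates, cells were treated for 48 hours with each compound at five concentrations. Insufficient inhibition: endpoint recorded as highest concentration tested. Abbreviation: GI50, concentration required for 50% inhibition of growth.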 Activity calls are given as the source filed them. Rule as the data show it: active = GI50 up to about 1.1 µM and inactive = higher. Where a SMILES comes first, the peptide text is derived from it. The star is where a group is joined. Boc = CC(C)(C)OC(=O)*

For the compound `CCCCCCCCCCCCn1c(=O)cc(NCCCC)c2cc3c(NCCCC)cc(=O)n(CCCCCCCCCCCC)c3nc21`, the GI50 in the assay on SK-MEL-2, in the assay with BT-549, in the assay with HCT-116, with SK-OV-3, with NCI-H460 and in the assay with A549 was > 100 µM (inactive) throughout. The GI50 with MOLT-4 was > 100 µM (inactive); in the assay on SF-268, 99.1 µM (inactive); in the assay on MDA-MB-231 it was > 100 µM (inactive); with MDA-MB-435 it was > 100 µM (inactive); in the assay with HCT-15, greater than 100 µM; in the assay with SK-MEL-28 it was > 100 µM (inactive). Further, the GI50 in the assay on K562 and in the assay on NCI-H23 was > 100 µM (inactive) in each case.

Turning to `COc1cc(-c2ccccc2)cn2c1nc1ccccc12`, the GI50 in the assay on SK-MEL-2 is 22.1 µM (inactive); with BT-549, 17.8 µM (inactive); in the assay with HCT-116, 20.9 µM (inactive); with SK-OV-3, 23.9 µM (inactive); with NCI-H460, 21.2 µM (inactive); in the assay on A549, 20 µM (inactive). Moreover, the GI50 with MOLT-4 is 15.7 µM (inactive); in the assay with SF-268, 26.1 µM (inactive); in the assay on MDA-MB-231 it was 21.8 µM (inactive); in the assay with SF-539, 26.6 µM (inactive); in the assay on MDA-MB-435, 18.9 µM (inactive); with HCT-15, 15.3 µM. Also, the GI50 is 17 µM (inactive) with SK-MEL-28, 25.2 µM (inactive) with K562, 35 µM (inactive) in the assay on NCI-H23 and 15 µM (inactive) in the assay with OVCAR-5.

For `COc1ccc(/C=C2\N=C(c3ccccc3)OC2=O)cc1OC(C)=O`, the GI50 with SK-MEL-2 is 27.5 µM (inactive); in the assay on BT-549, > 100 µM (inactive); in the assay on HCT-116, 58.9 µM (inactive); with SK-OV-3, > 100 µM (inactive); in the assay with NCI-H460 it was > 100 µM (inactive); in the assay on A549 it was > 100 µM (inactive). In addition, the GI50 was 0.615 µM (active) with MOLT-4; 27.3 µM (inactive) in the assay on SF-268; 46.5 µM (inactive) in the assay on MDA-MB-231; > 100 µM (inactive) with SF-539; 51.8 µM (inactive) in the assay on MDA-MB-435; 49.4 µM with HCT-15. Besides, the GI50 in the assay on SK-MEL-28 is > 100 µM (inactive); in the assay with K562, 44.9 µM (inactive); with NCI-H23, 65.6 µM (inactive); in the assay with OVCAR-5, > 100 µM (inactive).

Turning to `CC(C)(C)OC(=O)NC(Cc1ccc(OCc2ccccc2)cn1)C(N)=O` (stereo not drawn), the GI50 in the assay on BT-549 was > 100 µM (inactive); in the assay on HCT-116, > 100 µM (inactive); in the assay on NCI-H460, > 100 µM (inactive); with A549 it was > 100 µM (inactive); in the assay with MOLT-4, > 10 µM (inactive); in the assay with SF-268, > 100 µM (inactive). Besides, the GI50 with MDA-MB-231 is > 100 µM (inactive); in the assay with SF-539 it was > 100 µM (inactive); with MDA-MB-435 it was > 100 µM (inactive); in the assay with HCT-15, 54.7 µM; in the assay with SK-MEL-28, > 100 µM (inactive); with K562, > 100 µM (inactive). Besides, the GI50 in the assay on NCI-H23 was 86.5 µM (inactive); in the assay on EKVX, > 100 µM (inactive); with OVCAR-5, > 100 µM (inactive).

For `CC(SC(=S)N1CCCC1)C(=O)Nc1nnc(-c2ccc(Cl)cc2)o1` (stereo not drawn), the GI50 in the assay on SK-MEL-2 was 30.5 µM (inactive); in the assay with BT-549, 39.8 µM (inactive); in the assay with HCT-116, 19.5 µM (inactive); with SK-OV-3, 52.7 µM (inactive); with NCI-H460 it was 39.4 µM (inactive); in the assay on A549 it was 31 µM (inactive). Besides, the GI50 is 18 µM (inactive) in the assay with SF-268; 40 µM (inactive) with MDA-MB-231; 85.3 µM (inactive) with SF-539; 36.1 µM (inactive) with MDA-MB-435; 17 µM in the assay on HCT-15; 46.7 µM (inactive) in the assay with SK-MEL-28. The GI50 with K562 was 8.85 µM (inactive); in the assay on NCI-H23 it was 39.5 µM (inactive); with OVCAR-5 it was 33.2 µM (inactive).

As to `O=C(O)c1cccc(OCCOc2cccc(C(=O)O)c2[N+](=O)[O-])c1[N+](=O)[O-]`, the GI50 in the assay with SK-MEL-2, with BT-549, in the assay with HCT-116, with SK-OV-3, in the assay with NCI-H460 and in the assay with A549 was > 100 µM (inactive) throughout. In addition, the GI50 with MOLT-4 is > 100 µM (inactive); in the assay on SF-268, > 100 µM (inactive); with MDA-MB-231, > 100 µM (inactive); with SF-539, > 100 µM (inactive); in the assay with MDA-MB-435 it was > 100 µM (inactive); in the assay with HCT-15 it was greater than 100 µM. In addition, the GI50 in the assay with SK-MEL-28, in the assay on NCI-H23, in the assay with EKVX and with OVCAR-5 was > 100 µM (inactive) in each case.

As to `C=C(Cl)CN1c2ccccc2C=Cc2ccccc21`, the GI50 in the assay on SK-MEL-2 was 18.7 µM (inactive); in the assay on BT-549, 46 µM (inactive); in the assay with HCT-116, 5.01 µM (inactive); in the assay on SK-OV-3, 15.9 µM (inactive); in the assay on NCI-H460, 3.61 µM (inactive); in the assay on A549, 15.6 µM (inactive). For the same compound, the GI50 is 15.7 µM (inactive) with SF-268; 14.7 µM (inactive) in the assay on MDA-MB-231; 18 µM (inactive) in the assay with SF-539; 14.9 µM (inactive) in the assay on MDA-MB-435; greater than 100 µM in the assay on HCT-15; > 100 µM (inactive) with NCI-H23. Also, the GI50 was 19.1 µM (inactive) with EKVX and 19.9 µM (inactive) with OVCAR-5.

As for `N=C(N)c1ccc(C(NC(=O)CNS(=O)(=O)c2ccc3ccccc3c2)P(=O)(Oc2ccccc2)Oc2ccccc2)cc1` (stereo not drawn), the GI50 is > 100 µM (inactive) in the assay with SK-MEL-2; 19.2 µM (inactive) in the assay on BT-549; 37.8 µM (inactive) with HCT-116; 61.9 µM (inactive) with SK-OV-3; > 100 µM (inactive) with NCI-H460; 54.1 µM (inactive) in the assay with A549. The GI50 is 21 µM (inactive) in the assay with MOLT-4; 29.8 µM (inactive) in the assay on SF-268; 41.2 µM (inactive) in the assay on MDA-MB-231; 14.1 µM (inactive) in the assay on SF-539; 35.6 µM (inactive) in the assay with MDA-MB-435; 48.5 µM with HCT-15. The GI50 in the assay on SK-MEL-28 is > 100 µM (inactive); in the assay with K562 it was 50 µM (inactive); with NCI-H23, > 100 µM (inactive); in the assay with OVCAR-5, 32.6 µM (inactive).

Regarding `CC1CC/C(=C\c2ccc(F)cc2)C(=O)/C1=C/c1ccc(F)cc1` (stereo not drawn), the GI50 is 4.83 µM (inactive) in the assay with SK-MEL-2; 3.58 µM (inactive) in the assay with BT-549; 2.5 µM (inactive) in the assay on HCT-116; 17.4 µM (inactive) in the assay with SK-OV-3; 3.02 µM (inactive) in the assay on MOLT-4; 3.6 µM (inactive) in the assay with SF-268. The GI50 with MDA-MB-231 is 2.66 µM (inactive); with SF-539, 3.68 µM (inactive); in the assay on MDA-MB-435, 4.69 µM (inactive); with HCT-15, 2.34 µM; in the assay with SK-MEL-28, 13.2 µM (inactive); in the assay on K562, 3.76 µM (inactive). In addition, the GI50 was 6.44 µM (inactive) in the assay on NCI-H23, 3.67 µM (inactive) in the assay on EKVX and 4.13 µM (inactive) in the assay with OVCAR-5.

As for `Cc1c(C)c(S(=O)(=O)N(CCCN)OCCCN)c(C)c2c1OC(C)(C)CC2`, the GI50 was 17.5 µM (inactive) with SK-MEL-2; 17.5 µM (inactive) in the assay on BT-549; 16.5 µM (inactive) in the assay with HCT-116; 15.4 µM (inactive) in the assay on SK-OV-3; 15.8 µM (inactive) in the assay on NCI-H460; 15.6 µM (inactive) with A549. Further, the GI50 in the assay with MOLT-4 was 4.61 µM (inactive); in the assay on SF-268, 13.3 µM (inactive); in the assay on MDA-MB-231 it was 4.63 µM (inactive); with MDA-MB-435, 15.8 µM (inactive); with HCT-15, 15.8 µM; with SK-MEL-28 it was 15.2 µM (inactive). Further, the GI50 in the assay on K562 was 15.2 µM (inactive); with NCI-H23, 14.5 µM (inactive); with EKVX it was 16.7 µM (inactive); with OVCAR-5 it was 13 µM (inactive).

Turning to `O=C(/C(=C(/Br)I)c1ccccc1)c1ccccc1`, the GI50 is 22.9 µM (inactive) in the assay with BT-549; 16 µM (inactive) with HCT-116; 38.5 µM (inactive) in the assay with SK-OV-3; 19.1 µM (inactive) in the assay with NCI-H460; 26.9 µM (inactive) with A549; 15.2 µM (inactive) in the assay with MOLT-4. Besides, the GI50 was 22.1 µM (inactive) in the assay with SF-268; 25.5 µM (inactive) in the assay on MDA-MB-231; 17.2 µM (inactive) in the assay with SF-539; 28.8 µM (inactive) in the assay with MDA-MB-435; 25.1 µM in the assay with HCT-15; 14.4 µM (inactive) in the assay on K562. The GI50 in the assay with NCI-H23 is 50.4 µM (inactive); in the assay on EKVX, 29 µM (inactive); in the assay with OVCAR-5, 48.6 µM (inactive).

Consider `Oc1ccc(-c2nc(-c3cccnc3)c(-c3ccc(Cl)cc3)[nH]2)cc1`, for which the GI50 was 18.2 µM (inactive) in the assay on SK-MEL-2; 15.3 µM (inactive) in the assay on BT-549; 13.4 µM (inactive) with HCT-116; 13.6 µM (inactive) in the assay on SK-OV-3; 11.1 µM (inactive) in the assay with NCI-H460; 15.3 µM (inactive) in the assay with A549. The GI50 in the assay on MOLT-4 was 2.52 µM (inactive); in the assay with SF-268, 14.6 µM (inactive); in the assay with MDA-MB-231 it was 16.2 µM (inactive); in the assay with MDA-MB-435, 12.3 µM (inactive); with HCT-15, 12.1 µM; in the assay with SK-MEL-28, 16 µM (inactive). The GI50 was 10.5 µM (inactive) in the assay on K562, 13 µM (inactive) in the assay with NCI-H23, 13.2 µM (inactive) with EKVX and 19.3 µM (inactive) in the assay with OVCAR-5.

For the compound `COC(=O)C(Cc1c[nH]c2ccccc12)NC(=O)C(Cc1c[nH]c2ccccc12)NC(=O)C(Cc1c[nH]c2ccccc12)NC(=O)C(Cc1c[nH]c2ccccc12)NC(=O)C(Cc1c[nH]c2ccccc12)NC(=O)C(Cc1c[nH]c2ccccc12)NC(=O)C(Cc1c[nH]c2ccccc12)NC(=O)OC(C)(C)C` (stereo not drawn) (Boc-WWWWWWW-OMe; configuration not given here), the GI50 with SK-MEL-2 is 17.1 µM (inactive); with BT-549, > 100 µM (inactive); with HCT-116 it was 33.3 µM (inactive); in the assay with NCI-H460, > 100 µM (inactive); with A549, 31.9 µM (inactive); with MOLT-4, 40.6 µM (inactive). Moreover, the GI50 with SF-268 was > 100 µM (inactive); with MDA-MB-231, > 100 µM (inactive); in the assay with MDA-MB-435 it was > 100 µM (inactive); in the assay on HCT-15, greater than 100 µM; in the assay with SK-MEL-28, 35.6 µM (inactive); in the assay with K562 it was 64.1 µM (inactive). The figures for the GI50 in the assay with NCI-H23 and with OVCAR-5 were 64.1 µM (inactive) and 42.4 µM (inactive), respectively.
